# Measurements taken from patent US10894087B2, “Multi-arm polymeric prodrug conjugates of cabazitaxel-based compounds” (Nektar Therapeutics, priority 2010, dated 2021).
# Where two headings read alike, the source gives them in different places.
# System: H460 non-small cell lung cancer (NSCLC) implants
# Settings: for % TGD / MTV (Median Tumor Volume) / Median TTE (Median Time to Endpoint) / TGD (tumor growth delay compared to vehicle) / CR (Number of Complete Regressions) / PR (Number of Partial Regressions) / TFS (Number of Tumor Free Survivors): iv, qwk x 3; for CR (Number of Complete Regressions) / PR (Number of Partial Regressions) / TFS (Number of Tumor Free Survivors): N=10; for Complete regression, i.e., no detectable tumor (number of animals): through day 45, dose not given
# Description: Purpose. Studies were conducted to assess the growth inhibitory effects of PEGylated-conjugates of cabazitaxel on H460 non-small cell lung cancer (NSCLC) implants in athymic nu/nu mice.
# Experimental plan. These studies were conducted using routine methods and materials that are familiar to those skilled in the art. Briefly, 8 to 12 week old female nu/nu mice were injected subcutaneously in the flank with 1×10^7 H460 tumor cells in 0.2 mL sterile buffer. […] Animals received three intravenous doses of test article at one week intervals beginning on day 1. Cabazitaxel solutions were prepared in D5W containing 5% Tween 80:10% ethanol. PEG-cabazitaxel conjugates were prepared in D5W. The administration volume for all test articles was 10 mL/kg. The test doses were selected to represent the MTD and ½ the MTD for each test compound. The tables list the actual mg/kg for each test article and the corresponding cabazitaxel equivalent calculated based on the weight-percent cabazitaxel content for each PEGylated conjugate.
# Animals were weighed on days 1-5, 7, 9, 11, 13 then biweekly until the end of the study. Tumor sizes were measured using calipers biweekly throughout the study and tumor volumes were calculated using the formula for an ellipsoid sphere: L×W^2/2=mm^3, where L and W are the major axis dimensions of the tumor in mm. Additional parameters that were monitored were the number of non-specific deaths, number of partial and complete tumor regressions, number of tumor-free survivors, and the time required for individual animals' tumors to reach 2000 mm^3. The median time for a tumor to reach 2000 mm^3 in the treatment groups (T) and control group (C) was used to calculate of the overall delay in the growth of the median tumor (TGD). Animals were monitored individually until reaching the experimental endpoint: tumor size of 2000 mm^3 or 45 days, whichever came first. […] When the study endpoint was reached, the animals were euthanized.
# [1] = 30K and 40K conjugate xenograft study, 10 mg/kg cabazitaxel eq.
# [2] = 30K and 40K conjugate xenograft study, 20 mg/kg cabazitaxel eq.
# [3] = 30K and 40K conjugate xenograft study
# [4] = 20K conjugate xenograft study, 10 mg/kg cabazitaxel eq.
# [5] = 20K conjugate xenograft study, 20 mg/kg cabazitaxel eq.
# [6] = 30K and 40K conjugate xenograft study, 15 mg/kg cabazitaxel eq.
# [7] = 30K and 40K conjugate xenograft study, 30 mg/kg cabazitaxel eq.
# [8] = 30K and 40K conjugate xenograft study, 6 mg/kg cabazitaxel eq.
# [9] = 30K and 40K conjugate xenograft study, 12 mg/kg cabazitaxel eq.
Substance,% TGD [1] [%],Median TTE (Median Time to Endpoint) [1] [days],TGD (tumor growth delay compared to vehicle) [1] [days],CR (Number of Complete Regressions) [1],PR (Number of Partial Regressions) [1],TFS (Number of Tumor Free Survivors) [1],% TGD [2] [%],MTV (Median Tumor Volume) [2] [mm^3],TGD (tumor growth delay compared to vehicle) [2] [days],CR (Number of Complete Regressions) [2],PR (Number of Partial Regressions) [2],TFS (Number of Tumor Free Survivors) [2],"Complete regression, i.e., no detectable tumor (number of animals) [3]",% TGD [4] [%],MTV (Median Tumor Volume) [4] [mm^3],Median TTE (Median Time to Endpoint) [4] [days],TGD (tumor growth delay compared to vehicle) [4] [days],CR (Number of Complete Regressions) [4],PR (Number of Partial Regressions) [4],TFS (Number of Tumor Free Survivors) [4],also measured
4-ARM-PEG30K-Glycinate-Linked Cabazitaxel Conjugate [4-arm-PEG30K-CM-glycine-Cabazitaxel],119,32.7,17.8,0,1,0,208,478,31.1,1,6,1,one,–,–,–,–,–,–,–,MTV (Median Tumor Volume) [1]: 726 mm^3
4-ARM-PEG40K-Alaninate-Linked Cabazitaxel Conjugate [4-arm-PEG40K-CM-alanine-Cabazitaxel],101,30.1,15.1,0,0,0,208,184,31.1,1,4,1,one,–,–,–,–,–,–,–,–
4-ARM-PEG20K-Alaninate-Linked Cabazitaxel Conjugate [4-arm-PEG20K-CM-alanine-Cabazitaxel],–,–,–,–,–,–,–,–,–,–,–,–,–,93,908,35.6,17.1,0,0,0,% TGD [5]: 154%; MTV (Median Tumor Volume) [5]: 1470 mm^3; TGD (tumor growth delay compared to vehicle) [5]: 28.5 days; CR (Number of Complete Regressions) [5]: 0; PR (Number of Partial Regressions) [5]: 0; TFS (Number of Tumor Free Survivors) [5]: 0
4-ARM-PEG40K-Glycinate-Linked Cabazitaxel Conjugate [4-arm-PEG40K-CM-glycine-Cabazitaxel],–,–,–,–,–,–,–,–,–,–,–,–,one,–,–,–,–,–,–,–,"% TGD [6]: 146%; MTV (Median Tumor Volume) [6]: 1632 mm^3; Median TTE (Median Time to Endpoint) [6]: 36.8 days; TGD (tumor growth delay compared to vehicle) [6]: 21.9 days; CR (Number of Complete Regressions) [6]: 0; PR (Number of Partial Regressions) [6]: 0; TFS (Number of Tumor Free Survivors) [6]: 0; % TGD [7]: 208%; MTV (Median Tumor Volume) [7]: 32 mm^3; TGD (tumor growth delay compared to vehicle) [7]: 31.1 days; CR (Number of Complete Regressions) [7]: 1; TFS (Number of Tumor Free Survivors) [7]: 1; PR (Number of Partial Regressions) (30K and 40K conjugate xenograft study, 30 mg/kg cabazitaxel eq., 30 mg/kg): 9; PR (Number of Partial Regressions) (30K and 40K conjugate xenograft study, 30 mg/kg cabazitaxel eq., listed as 4-arm-PEG40K-CM-glycine-cabazitaxel, 30 mg/kg): 10"
4-ARM-PEG20K-Glycinate-Linked Cabazitaxel Conjugate [4-arm-PEG20K-CM-glycine-Cabazitaxel],–,–,–,–,–,–,–,–,–,–,–,–,–,63,1200,30.1,11.6,0,0,0,% TGD [5]: 154%; MTV (Median Tumor Volume) [5]: 1183 mm^3; TGD (tumor growth delay compared to vehicle) [5]: 28.5 days; CR (Number of Complete Regressions) [5]: 0; PR (Number of Partial Regressions) [5]: 4; TFS (Number of Tumor Free Survivors) [5]: 0
4-ARM-PEG30K-Alaninate-Linked Cabazitaxel Conjugate [4-arm-PEG30K-CM-alanine-Cabazitaxel],–,–,–,–,–,–,–,–,–,–,–,–,–,–,–,–,–,–,–,–,% TGD [8]: 39%; Median TTE (Median Time to Endpoint) [8]: 20.8 days; TGD (tumor growth delay compared to vehicle) [8]: 5.9 days; CR (Number of Complete Regressions) [8]: 0; PR (Number of Partial Regressions) [8]: 0; TFS (Number of Tumor Free Survivors) [8]: 0; % TGD [9]: 158%; MTV (Median Tumor Volume) [9]: 600 mm^3; Median TTE (Median Time to Endpoint) [9]: 38.6 days; TGD (tumor growth delay compared to vehicle) [9]: 23.6 days; CR (Number of Complete Regressions) [9]: 0; PR (Number of Partial Regressions) [9]: 0; TFS (Number of Tumor Free Survivors) [9]: 0
